Assay results taken from patent US6903118B1, “Piperazinyl-substituted pyridylalkane, alkene and alkine carboxamides” (Klinge Pharma GmbH, priority 1997, dated 2005).

Row | Structure (SMILES) | melting point
1 | O=C(C=Cc1cccnc1)NCCC(O)CN1CCN(C(c2ccccc2)c2ccccc2)CC1 (stereo not shown) [Substance 29, N-[4-(4-diphenylmethyl-piperazin-1-yl)-3-hydroxy-butyl]-3-pyridin-3-yl-acrylamide] | 168 to 171 °C
2 | O=C(C=Cc1cccnc1)NCCCCN1CCN(c2cccc3c2CCCC3)CC1 [Substance 94, 3-pyridin-3-yl-N-[4-(4-{5,6,7,8-tetrahydro-naphthalin-1-yl}-piperazin-1-yl)-butyl]-acrylamide] | 108 to 109 °C
3 | O=C(C=Cc1cccnc1)NCCCCN1CCN(c2ccccc2-c2ccccc2)CC1 [Substance 68, N-[4-(4-biphenyl-2-yl-piperazin-1-yl)-butyl)-3-pyridin-3-yl-acrylamide] | 115 °C
4 | O=C(C=Cc1cccnc1)NCCN1CCN(S(=O)(=O)c2ccc3ccccc3c2)CC1 [Substance 227, N-{2-[4-(naphthalin-2-yl-sulfonyl)-piperazin-1-yl]-ethyl}-3-pyridin-3-yl-acrylamide] | 183 to 184 °C
5 | O=C(C=Cc1cccnc1)NCCCS(=O)(=O)N1CCN(C(c2ccccc2)c2ccccc2)CC1 [Substance 32, N-[3-(4-diphenylmethyl-piperazin-1-yl-sulfonyl)-propyl]-3-pyridin-3-yl-acrylamide] | 167 to 168 °C
6 | O=C(C=Cc1cccnc1)NCCCCN1CCN(C2CCCc3ccccc32)CC1 (stereo not shown) [Substance 87, 3-pyridin-3-yl-N-{4-[4-(1,2,3,4-tetrahydronaphthalin-1-yl)-piperazin-1-yl]-butyl}-acrylamide] | 110 to 114 °C
7 | O=C(C=Cc1cccnc1)NOCCCN1CCN(C(c2ccccc2)c2ccccc2)CC1 [Substance 30, N-[3-(4-diphenylmethylpiperazin-1-yl)-propoxy]-3-pyridin-3-yl-acrylamide] | 115 to 117 °C
